Source: patent publication US7252936B2 (priority 1994, dated 2007)

Assays:
[1] = tested on: M. tuberculosis strains with Aspartic acid 516 changed into Valine or Tyrosine; type: cell-based
[2] = tested on: M. tuberculosis; assay: microbe, parasite or virus in culture; type: cell-based; conditions: Mycobacterium tuberculosis, read-out: MIC (Minimal Inhibitory Concentration)

Structure (SMILES): CO[C@H]1/C=C/O[C@@]2(C)Oc3c(C)c(O)c4c(c3C2=O)C2=NC3(CCN(CC(C)C)CC3)NC2=C(NC(=O)/C(C)=C\C=C\[C@H](C)[C@H](O)[C@@H](C)[C@@H](O)[C@@H](C)[C@H](OC(C)=O)[C@@H]1C)C4=O [rifabutin]
- Resistance or sensitivity of strains with the mutation [1]: sensitivity to rifabutin is maintained

Structure (SMILES): CO[C@H]1/C=C/O[C@@]2(C)Oc3c(C)c(O)c4c(O)c(c(/C=N/N5CCN(C)CC5)c(O)c4c3C2=O)NC(=O)/C(C)=C\C=C\[C@H](C)[C@H](O)[C@@H](C)[C@@H](O)[C@@H](C)[C@H](OC(C)=O)[C@@H]1C [rifampicin]
- MIC [2]: > 2 mg/L
